Data from patent publication US20120302636A1, “METHOD OF TREATING A DISORDER ASSOCIATED WITH MTP” (priority 2009, published 2012).

Columns and labels:
Assay type in all cases: in vivo, human
LDL-C levels = experiment: Example 4: 8-week study in hyperlipidemia, efficacy
Method: (§1) One hundred five Japanese patients with hyperlipidemia (LDL-C between 140 and 220 mg/dL; TG≦400 mg/dL) participated in the study. […] For the efficacy analysis, 95 subjects were observed (0.5 mg BID: 25 subjects, 1 mg BID: 24 subjects, 2 mg BID: 22 subjects, 4 mg BID: 24 subjects).
The objective was to administer the compound of formula (I) orally to hyperlipidemic patients at a dose of 0.5, 1, 2, or 4 mg as capsules twice daily after the morning (e.g., breakfast) and evening meal (e.g., dinner) for eight weeks in order to explore a dose range in which the compound of formula (I) reduced LDL-C levels. In addition, the effects on lipid metabolism, safety, and pharmacokinetics of the compound of formula (I) were evaluated.

Example 8: safety = experiment: Example 8: safety
Source text: The study had 180 participants.

[1] = Example 3: pharmacokinetics; conditions: all dose groups
[2] = Example 4: 8-week study in hyperlipidemia, safety
Method: as §1

serum lipid levels = experiment: Example 7: serum lipid levels
Method: Postprandial levels of lipid parameters after administration of the compound of formula (I) were evaluated using the change from preceding timepoint. […] Intraday changes and changes from pretreatment baseline also indicate that the absorption of TG, VLDL-TG, and chylomicron-TG were delayed compared to placebo. This delayed absorption is consistent with a previous pharmacology study in healthy male Japanese subjects. The postprandial results were interpreted with caution as the delay in absorption can impact the calculation regarding the magnitude of the postprandial change in triglycerides. However, the suppression of the expected increases in postprandial TG, VLDL-TG, and chylomicron-TG, which is indicative of MTP inhibition, clearly supports the mechanism of action of the compound of formula (I). The VLDL-TG changes observed in this study are consistent with previous studies (Examples 2 and 6) where the compound of formula (I) was administered for up to 14 days in healthy or hypertriglyceridemic Caucasian and Japanese male subjects. In general, the compound of formula (I) levels were also low or non-quantifiable in these studies. […] Therefore, the compound of formula (I) is not believed to directly affect the liver.

Q: What does the source list for CCOC(=O)C(COC(=O)Cc1ccc(NC(=O)c2ccccc2-c2ccc(C(F)(F)F)cc2)c(C(=O)N(C)C)c1)(C(=O)OCC)c1ccccc1 [compound of formula (I), diethyl 2-((2-(3-(dimethylcarbamoyl)-4-(4′-(trifiuoromethyl)biphenyl-2-ylcarboxamido)phenyl)acetoxy)methyl)-2-phenyl malonate]?
A: mean percent change in LDL-C levels at Week 8 from baseline (LDL-C levels; 0.5 mg BID): −4.3%; mean percent change in LDL-C levels at Week 8 from baseline (LDL-C levels; 1 mg BID): −4.5%; mean percent change in LDL-C levels at Week 8 from baseline (LDL-C levels; 2 mg BID): −12.2%; mean percent change in LDL-C levels at Week 8 from baseline (LDL-C levels; 4 mg BID): −12.3%; ApoB and ApoE levels (LDL-C levels; 2 and 4 mg BID): decreased; TC levels (LDL-C levels; 2 and 4 mg BID, throughout treatment): decreased; insulin, hemoglobin Alc, adiponectin, or leptin level (LDL-C levels; in vivo): did not affect; ApoB48, ApoA-I, ApoA-II, ApoC-II, and ApoC-III levels (LDL-C levels; treatment period): no significant changes; time course of TG or HDL-C levels (LDL-C levels; treatment period): no definite trend or dose correlation; incidence of drug-related decreased appetite (Example 8: safety; 1 mg BID): 4.4%; incidence of drug-related decreased appetite (Example 8: safety; 2.5 mg BID): 20.0%; subjects prematurely discontinued due to diarrhea (Example 8: safety; 2.5 mg BID): 1 subject; incidence of drug-related decreased appetite (Example 8: safety; 3.5 mg BID): 22.2%; subjects prematurely discontinued due to diarrhea (Example 8: safety; 3.5 mg BID): 2 subject; tolerability (Example 8: safety; 1 to 3.5 mg BID, 12 weeks): generally well tolerated; fat-soluble vitamins or coagulation factors (Example 8: safety; in vivo): no clinically significant changes; liver function parameters (AST, ALT, alkaline phosphatase) PCS values (Example 8: safety; in vivo): no subject had a PCS value; plasma concentrations of the compound of formula (I) [1]: below the limit of quantization; incidence of moderate diarrhea ([2]; 0.5 mg BID): 8.0%; number of adverse events ([2]; 0.5 mg BID): 20; number of moderate diarrhea events ([2]; 0.5 mg BID): 2; subjects with adverse events (incidence) ([2]; 0.5 mg BID): 44.0%; incidence of diarrhea ([2]; 1 mg BID): 15.9%; incidence of moderate diarrhea ([2]; 1 mg BID): 0.0%; number of adverse events ([2]; 1 mg BID): 60; number of diarrhea events ([2]; 1 mg BID): 6; number of moderate diarrhea events ([2]; 1 mg BID): 0; subjects with adverse events (incidence) ([2]; 1 mg BID): 75.0%; incidence of diarrhea ([2]; 2 mg BID): 24.0%; incidence of moderate diarrhea ([2]; 2 mg BID): 12.0%; number of adverse events ([2]; 2 mg BID): 51; number of diarrhea events ([2]; 2 mg BID): 12; number of moderate diarrhea events ([2]; 2 mg BID): 4; subjects with adverse events (incidence) ([2]; 2 mg BID): 80.0%; incidence of diarrhea ([2]; 4 mg BID): 40.7%; incidence of moderate diarrhea ([2]; 4 mg BID): 29.6%; number of adverse events ([2]; 4 mg BID): 82; number of diarrhea events ([2]; 4 mg BID): 21; number of moderate diarrhea events ([2]; 4 mg BID): 13; subjects with adverse events (incidence) ([2]; 4 mg BID): 85.2%; death or serious adverse events ([2]; 0.5-4 mg BID capsules, 8 weeks): neither death nor other serious adverse events occurred; events of gastrointestinal disorders ([2]; 105 subjects): 117; events of infections and infestations ([2]; 105 subjects): 11; events of investigations ([2]; 105 subjects): 49; events of metabolism and nutrition disorders ([2]; 105 subjects): 7; events of musculoskeletal, and connective tissue disorders ([2]; 105 subjects): 7; incidence of gastrointestinal disorders (SOC) ([2]; 105 subjects): 47.6%; incidence of infections and infestations (SOC) ([2]; 105 subjects): 9.5%; incidence of investigations (SOC) ([2]; 105 subjects): 31.4%; incidence of metabolism and nutrition disorders (SOC) ([2]; 105 subjects): 6.7%; incidence of moderate adverse events ([2]; 105 subjects): 18.1%; incidence of musculoskeletal, and connective tissue disorders (SOC) ([2]; 105 subjects): 6.7%; laboratory abnormality ALT, subjects ([2]; 105 subjects): 5.7%; laboratory abnormality CPK, subjects ([2]; 105 subjects): 6.7%; laboratory abnormality CRP, subjects ([2]; 105 subjects): 3.8%; laboratory abnormality IP, subjects ([2]; 105 subjects): 2.9%; laboratory abnormality γ-GTP, subjects ([2]; 105 subjects): 3.8%; number of moderate adverse events ([2]; 105 subjects): Twenty-six; number of adverse events ([2]; all 105 subjects): 213; subjects with adverse events (incidence) ([2]; all 105 subjects): 71.45%; fat-soluble vitamins (vitamin A, 25-OH vitamin D, and vitamin E) ([2]; in vivo): no clinically significant changes; subjects withdrawn from the study treatment because of adverse events ([2]; of 105 subjects): four; postprandial estimates for TG, VLDL-TG, and chylomicron-TG (serum lipid levels; following breakfast and dinner): substantially lower when compared with placebo; decrease in HDL-C levels (serum lipid levels; in vivo): not as pronounced as LDL-C, nor was it statistically significant; pretreatment baseline adjusted values of TC, LDL-C, LDL-TG, ApoB, and phospholipids (serum lipid levels; in vivo): significant reduction
